Results as given in ChEMBL document CHEMBL1201861, “Genomics of Drug Sensitity in Cancer screening data, Wellcome Trust Sanger Institute”.

Key:
Assay in all cases: cells
COLO-824 = type: functional, cell-based, Homo sapiens; conditions: Homo sapiens, COLO-824
Description: SANGER: Inhibition of human COLO-824 cell growth in a cell viability assay.

D-247MG = type: functional, cell-based, Homo sapiens; conditions: Homo sapiens, D-247MG
Description: SANGER: Inhibition of human D-247MG cell growth in a cell viability assay.

DMS-114 = type: functional, cell-based, Homo sapiens; conditions: Homo sapiens, DMS-114
EFM-19 = type: functional, cell-based, Homo sapiens; conditions: Homo sapiens, EFM-19;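 also: growth inhibition of human EFM-19 cells, measured in a cell viability assay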
Description: SANGER: Inhibition of human EFM-19 cell growth in a cell viability assay.

EW-16 = type: functional, cell-based, Homo sapiens; conditions: Homo sapiens, EW-16;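 also: growth inhibition of human EW-16 cells, read out as cell viability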
Description: SANGER: Inhibition of human EW-16 cell growth in a cell viability assay.

GAMG = type: functional, cell-based, Homo sapiens; conditions: Homo sapiens, GAMG;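 also: cell growth inhibition measured by a viability assay in the GAMG human cell line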
Description: SANGER: Inhibition of human GAMG cell growth in a cell viability assay.

GB-1 = type: functional, cell-based, Homo sapiens; conditions: Homo sapiens, GB-1;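 also: growth of GB-1 cells judged by a viability assay, IC50 marks the concentration inhibiting growth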
Description: SANGER: Inhibition of human GB-1 cell growth in a cell viability assay.

GP5d = type: functional, cell-based, Homo sapiens; conditions: Homo sapiens, GP5d;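 also: growth inhibition of human GP5d cells, read out with a cell viability assay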
Description: SANGER: Inhibition of human GP5d cell growth in a cell viability assay.

HSC-2 = type: functional, cell-based, Homo sapiens; conditions: Homo sapiens, HSC-2;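 also: growth inhibition of human HSC-2 cells, read out by a cell viability assay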
Description: SANGER: Inhibition of human HSC-2 cell growth in a cell viability assay.

HSC-3 = type: functional, cell-based, Homo sapiens; conditions: Homo sapiens, HSC-3
Description: SANGER: Inhibition of human HSC-3 cell growth in a cell viability assay.

HT-1376 = type: functional, cell-based, Homo sapiens; conditions: Homo sapiens, HT-1376
Description: SANGER: Inhibition of human HT-1376 cell growth in a cell viability assay.

IGR-1 = type: functional, cell-based, Homo sapiens; conditions: Homo sapiens, IGR-1;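 also: growth inhibition of human IGR-1 cells, read out with a cell viability assay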
Description: SANGER: Inhibition of human IGR-1 cell growth in a cell viability assay.

JVM-2 = type: functional, cell-based; conditions: Homo sapiens;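 also: growth inhibition of JVM-2 cells determined by a cell viability assay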
Description: SANGER: Inhibition of human JVM-2 cell growth in a cell viability assay.

KYSE-180 = type: functional, cell-based, Homo sapiens; conditions: Homo sapiens, KYSE-180;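 also: growth inhibition of KYSE-180 cells, read out with a cell viability assay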
Description: SANGER: Inhibition of human KYSE-180 cell growth in a cell viability assay.

KYSE-510 = type: functional, cell-based, Homo sapiens; conditions: Homo sapiens, KYSE-510;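 also: cell viability readout used to measure how strongly growth of the cell line is suppressed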
Description: SANGER: Inhibition of human KYSE-510 cell growth in a cell viability assay.

LB1047-RCC = type: functional, cell-based, Homo sapiens; conditions: Homo sapiens, LB1047-RCC;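 also: inhibition of cell growth, determined with a cell viability assay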
Description: SANGER: Inhibition of human LB1047-RCC cell growth in a cell viability assay.

LS-411N = type: functional, cell-based, Homo sapiens; conditions: Homo sapiens, LS-411N
M059J = type: functional, cell-based, Homo sapiens; conditions: Homo sapiens, M059J;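 also: growth inhibition of M059J cells, read out with a cell viability assay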
Description: SANGER: Inhibition of human M059J cell growth in a cell viability assay.

MHH-ES-1 = type: functional, cell-based, Homo sapiens; conditions: Homo sapiens, MHH-ES-1;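 also: cell growth inhibition measured by a cell viability assay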
Description: SANGER: Inhibition of human MHH-ES-1 cell growth in a cell viability assay.

MLMA = type: functional, cell-based, Homo sapiens; conditions: Homo sapiens, MLMA;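 also: growth inhibition of MLMA cells (human), determined through a cell viability readout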
Description: SANGER: Inhibition of human MLMA cell growth in a cell viability assay.

MS-1 = type: functional, cell-based; conditions: Homo sapiens
Description: SANGER: Inhibition of human MS-1 cell growth in a cell viability assay.

MeWo = type: functional, cell-based, Homo sapiens; conditions: Homo sapiens, MeWo;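 also: growth inhibition of MeWo cells, determined by a cell viability readout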
Description: SANGER: Inhibition of human Mewo cell growth in a cell viability assay.

NB13 = type: functional, cell-based, Homo sapiens; conditions: Homo sapiens, NB13;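 also: cell viability readout measuring growth inhibition of human NB13 cells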
Description: SANGER: Inhibition of human NB13 cell growth in a cell viability assay.

NB6 = type: functional, cell-based, Homo sapiens; conditions: Homo sapiens, NB6;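 also: growth inhibition of NB6 cells, read out by a cell viability assay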
Description: SANGER: Inhibition of human NB6 cell growth in a cell viability assay.

NCI-H1299 = type: functional, cell-based, Homo sapiens; conditions: Homo sapiens, NCI-H1299;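 also: growth inhibition of human NCI-H1299 cells, read out by a cell viability assay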
Description: SANGER: Inhibition of human NCI-H1299 cell growth in a cell viability assay.

NCI-H1993 = type: functional, cell-based, Homo sapiens; conditions: Homo sapiens, NCI-H1993;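 also: growth inhibition of the cancer cell line, assessed with a cell viability assay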
Description: SANGER: Inhibition of human NCI-H1993 cell growth in a cell viability assay.

NCI-H2030 = type: functional, cell-based, Homo sapiens; conditions: Homo sapiens, NCI-H2030;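 also: growth inhibition of human NCI-H2030 cells, read out by a cell viability assay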
Description: SANGER: Inhibition of human NCI-H2030 cell growth in a cell viability assay.

NCI-H2170 = type: functional, cell-based, Homo sapiens; conditions: Homo sapiens, NCI-H2170;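 also: cell viability assay measuring growth inhibition of human NCI-H2170 cancer cells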
Description: SANGER: Inhibition of human NCI-H2170 cell growth in a cell viability assay.

NCI-H226 = type: functional, cell-based, Homo sapiens; conditions: Homo sapiens, NCI-H226;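 also: cell viability read-out used to gauge growth inhibition of the cells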
Description: SANGER: Inhibition of human NCI-H226 cell growth in a cell viability assay.

NCI-H2342 = type: functional, cell-based; conditions: Homo sapiens;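 also: growth inhibition of the cancer cell line, determined with a cell viability assay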
Description: SANGER: Inhibition of human NCI-H2342 cell growth in a cell viability assay.

NCI-H2452 = type: functional, cell-based, Homo sapiens; conditions: Homo sapiens, NCI-H2452;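 also: growth inhibition of NCI-H2452 cells, read out with a cell viability assay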
Description: SANGER: Inhibition of human NCI-H2452 cell growth in a cell viability assay.

NCI-H727 = type: functional, cell-based, Homo sapiens; conditions: Homo sapiens, NCI-H727;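 also: growth inhibition of human NCI-H727 cells, read out with a cell viability assay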
Description: SANGER: Inhibition of human NCI-H727 cell growth in a cell viability assay.

NOS-1 = type: functional, cell-based, Homo sapiens; conditions: Homo sapiens, NOS-1;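 also: growth inhibition of the human NOS-1 cell line, read out with a cell viability assay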
Description: SANGER: Inhibition of human NOS-1 cell growth in a cell viability assay.

RCC10RGB = type: functional, cell-based, Homo sapiens; conditions: Homo sapiens, RCC10RGB;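 also: growth inhibition of human RCC10RGB cells, read out by a cell viability assay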
Description: SANGER: Inhibition of human RCC10RGB cell growth in a cell viability assay.

RO82-W-1 = type: functional, cell-based, Homo sapiens; conditions: Homo sapiens, RO82-W-1;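 also: growth inhibition of human RO82-W-1 cells, measured with a cell viability assay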
Description: SANGER: Inhibition of human RO82-W-1 cell growth in a cell viability assay.

SK-LU-1 = type: functional, cell-based, Homo sapiens; conditions: Homo sapiens, SK-LU-1;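 also: cell viability assay measuring growth inhibition of human SK-LU-1 cells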
Description: SANGER: Inhibition of human SK-LU-1 cell growth in a cell viability assay.

SNB-75 = type: functional, cell-based, Homo sapiens; conditions: Homo sapiens, SNB-75;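 also: cell viability assay measuring growth inhibition of human SNB-75 cells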
Description: SANGER: Inhibition of human SNB75 cell growth in a cell viability assay.

SW1710 = type: functional, cell-based, Homo sapiens; conditions: Homo sapiens, SW1710;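 also: growth inhibition of SW1710 cells, determined with a cell viability assay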
Description: SANGER: Inhibition of human SW1710 cell growth in a cell viability assay.

SW1783 = type: functional, cell-based; conditions: Homo sapiens;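 also: cell growth inhibition measured with a viability assay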
Description: SANGER: Inhibition of human SW1783 cell growth in a cell viability assay.

SW684 = type: functional, cell-based, Homo sapiens; conditions: Homo sapiens, SW684;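 also: growth inhibition of human SW684 cells, measured by a cell viability assay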
Description: SANGER: Inhibition of human SW684 cell growth in a cell viability assay.

T47D = type: functional, cell-based, Homo sapiens; conditions: Homo sapiens, T47D;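 also: growth inhibition of human T47D cells, measured with a cell viability assay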
Description: SANGER: Inhibition of human T47D cell growth in a cell viability assay.

769-P = type: functional, cell-based, Homo sapiens; conditions: Homo sapiens, 769-P
Description: SANGER: Inhibition of human 769-P cell growth in a cell viability assay.

A101D = type: functional, cell-based, Homo sapiens; conditions: Homo sapiens, A101D;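 also: growth inhibition of the cell line, measured with a viability assay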
Description: SANGER: Inhibition of human A101D cell growth in a cell viability assay.

A253 cell line = type: functional, cell-based, Homo sapiens; conditions: Homo sapiens, A253;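 also: growth inhibition of A253 cells, read out with a cell viability assay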
Description: SANGER: Inhibition of human A253 cell growth in a cell viability assay.

A-375 = type: functional, cell-based, Homo sapiens; conditions: Homo sapiens, A-375;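 also: growth inhibition of A375 cells, read out with a cell viability assay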
Description: SANGER: Inhibition of human A375 cell growth in a cell viability assay.

A388 = type: functional, cell-based, Homo sapiens; conditions: Homo sapiens, A388;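 also: growth inhibition of human A388 cells, read out with a cell viability assay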
Description: SANGER: Inhibition of human A388 cell growth in a cell viability assay.

AU565 = type: functional, cell-based, Homo sapiens; conditions: Homo sapiens, AU565;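 also: cell viability assay measuring growth inhibition of human AU565 cells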
Description: SANGER: Inhibition of human AU565 cell growth in a cell viability assay.

C8166 = type: functional, cell-based; conditions: Homo sapiens;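 also: growth inhibition of human C8166 cells measured by a cell viability assay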
Description: SANGER: Inhibition of human C8166 cell growth in a cell viability assay.

UACC-893 = type: functional, cell-based, Homo sapiens; conditions: Homo sapiens, UACC-893
Description: SANGER: Inhibition of human UACC-893 cell growth in a cell viability assay.

UMC-11 = type: functional, cell-based, Homo sapiens; conditions: Homo sapiens, UMC-11;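 also: growth inhibition of UMC-11 cells, read out with a cell viability assay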
Description: SANGER: Inhibition of human UMC-11 cell growth in a cell viability assay.

With CN(c1ncccc1CNc1nc(Nc2ccc3c(c2)CC(=O)N3)ncc1C(F)(F)F)S(C)(=O)=O [PF-00562271] the IC50 (COLO-824) was over 2560 nM, the IC50 (D-247MG) was over 2560 nM and the IC50 (DMS-114) was over 2560 nM. For the same compound, the IC50 (EFM-19) was over 2560 nM, the IC50 (EW-16) was 2040 nM and the IC50 (GAMG) was over 2560 nM. The IC50 (GB-1) was over 2560 nM, the IC50 (GP5d) was over 2560 nM and the IC50 (HSC-2) was 1540 nM. It also gave an IC50 (HSC-3) of over 2560 nM, an IC50 (HT-1376) of over 2560 nM and an IC50 (IGR-1) of over 2560 nM. It also gave an IC50 (JVM-2) of over 2560 nM, an IC50 (KYSE-180) of 2290 nM and an IC50 (KYSE-510) of over 2560 nM. The IC50 (LB1047-RCC) was over 2560 nM, the IC50 (LS-411N) was over 2560 nM and the IC50 (M059J) was over 2560 nM. It also gave an IC50 (MHH-ES-1) of 1800 nM, an IC50 (MLMA) of over 2560 nM and an IC50 (MS-1) of over 2560 nM. The IC50 (MeWo) was over 2560 nM, the IC50 (NB13) was over 2560 nM and the IC50 (NB6) was over 2560 nM. It also gave an IC50 (NCI-H1299) of over 2560 nM, an IC50 (NCI-H1993) of over 2560 nM and an IC50 (NCI-H2030) of over 2560 nM. For the same compound, the IC50 (NCI-H2170) was over 2560 nM, the IC50 (NCI-H226) was over 2560 nM and the IC50 (NCI-H2342) was over 2560 nM. For the same compound, the IC50 (NCI-H2452) was over 2560 nM, the IC50 (NCI-H727) was over 2560 nM and the IC50 (NOS-1) was over 2560 nM. It also gave an IC50 (RCC10RGB) of 2330 nM, an IC50 (RO82-W-1) of over 2560 nM and an IC50 (SK-LU-1) of over 2560 nM. For the same compound, the IC50 (SNB-75) was over 2560 nM, the IC50 (SW1710) was 1630 nM and the IC50 (SW1783) was over 2560 nM. The IC50 (SW684) was over 2560 nM, the IC50 (T47D) was over 2560 nM and the IC50 (769-P) was over 2560 nM. It also gave an IC50 (A101D) of over 2560 nM, an IC50 (A253 cell line) of over 2560 nM and an IC50 (A-375) of over 2560 nM. The IC50 (A388) was over 2560 nM, the IC50 (AU565) was over 2560 nM and the IC50 (C8166) was over 2560 nM. The IC50 (UACC-893) was over 2560 nM and the IC50 (UMC-11) was over 2560 nM.
COc1ccc(C2=N[C@@H](c3ccc(Cl)cc3)[C@@H](c3ccc(Cl)cc3)N2C(=O)N2CCNC(=O)C2)c(OC(C)C)c1 [NUTLIN-3] gave an IC50 (COLO-824) of over 8000 nM, an IC50 (D-247MG) of 4750 nM and an IC50 (DMS-114) of over 8000 nM. For the same compound, the IC50 (EFM-19) was over 8000 nM, the IC50 (EW-16) was over 8000 nM and the IC50 (GAMG) was over 8000 nM. It also gave an IC50 (GB-1) of over 8000 nM, an IC50 (GP5d) of over 8000 nM and an IC50 (HSC-2) of over 8000 nM. It also gave an IC50 (HSC-3) of over 8000 nM, an IC50 (HT-1376) of over 8000 nM and an IC50 (IGR-1) of over 8000 nM. The IC50 (JVM-2) was over 8000 nM, the IC50 (KYSE-180) was over 8000 nM and the IC50 (KYSE-510) was over 8000 nM. The IC50 (LB1047-RCC) was over 8000 nM, the IC50 (LS-411N) was over 8000 nM and the IC50 (M059J) was over 8000 nM. It also gave an IC50 (MHH-ES-1) of over 8000 nM, an IC50 (MLMA) of over 8000 nM and an IC50 (MS-1) of over 8000 nM. The IC50 (MeWo) was over 8000 nM, the IC50 (NB13) was over 8000 nM and the IC50 (NB6) was over 8000 nM. For the same compound, the IC50 (NCI-H1299) was over 8000 nM, the IC50 (NCI-H1993) was over 8000 nM and the IC50 (NCI-H2030) was over 8000 nM. The IC50 (NCI-H2170) was over 8000 nM, the IC50 (NCI-H226) was over 8000 nM and the IC50 (NCI-H2342) was over 8000 nM. The IC50 (NCI-H2452) was over 8000 nM, the IC50 (NCI-H727) was over 8000 nM and the IC50 (NOS-1) was over 8000 nM. For the same compound, the IC50 (RCC10RGB) was over 8000 nM, the IC50 (RO82-W-1) was over 8000 nM and the IC50 (SK-LU-1) was over 8000 nM. The IC50 (SNB-75) was over 8000 nM, the IC50 (SW1710) was over 8000 nM and the IC50 (SW1783) was over 8000 nM. It also gave an IC50 (SW684) of over 8000 nM, an IC50 (T47D) of over 8000 nM and an IC50 (769-P) of over 8000 nM. It also gave an IC50 (A101D) of 2350 nM, an IC50 (A253 cell line) of over 8000 nM and an IC50 (A-375) of 4340 nM. The IC50 (A388) was over 8000 nM, the IC50 (AU565) was over 8000 nM and the IC50 (C8166) was over 8000 nM. For the same compound, the IC50 (UACC-893) was over 8000 nM and the IC50 (UMC-11) was over 8000 nM.
In the case of Cc1cnc(-c2cnc(NCCNc3ccc(C#N)cn3)nc2-c2ccc(Cl)cc2Cl)[nH]1 [LADUVIGLUSIB], the IC50 (COLO-824) is reported as over 2560 nM, the IC50 (D-247MG) is reported as 949 nM and the IC50 (DMS-114) is reported as over 2560 nM. It also gave an IC50 (EFM-19) of over 2560 nM, an IC50 (EW-16) of over 2560 nM and an IC50 (GAMG) of over 2560 nM. It also gave an IC50 (GB-1) of over 2560 nM, an IC50 (GP5d) of over 2560 nM and an IC50 (HSC-2) of over 2560 nM. For the same compound, the IC50 (HSC-3) was over 2560 nM, the IC50 (HT-1376) was over 2560 nM and the IC50 (IGR-1) was over 2560 nM. The IC50 (JVM-2) was over 2560 nM, the IC50 (KYSE-180) was 1730 nM and the IC50 (KYSE-510) was over 2560 nM. For the same compound, the IC50 (LB1047-RCC) was over 2560 nM, the IC50 (LS-411N) was over 2560 nM and the IC50 (M059J) was over 2560 nM. For the same compound, the IC50 (MHH-ES-1) was over 2560 nM, the IC50 (MLMA) was over 2560 nM and the IC50 (MS-1) was over 2560 nM. It also gave an IC50 (MeWo) of over 2560 nM, an IC50 (NB13) of over 2560 nM and an IC50 (NB6) of over 2560 nM. The IC50 (NCI-H1299) was over 2560 nM, the IC50 (NCI-H1993) was over 2560 nM and the IC50 (NCI-H2030) was over 2560 nM. The IC50 (NCI-H2170) was over 2560 nM, the IC50 (NCI-H226) was over 2560 nM and the IC50 (NCI-H2342) was over 2560 nM. For the same compound, the IC50 (NCI-H2452) was over 2560 nM, the IC50 (NCI-H727) was over 2560 nM and the IC50 (NOS-1) was over 2560 nM. It also gave an IC50 (RCC10RGB) of over 2560 nM, an IC50 (RO82-W-1) of over 2560 nM and an IC50 (SK-LU-1) of over 2560 nM. The IC50 (SNB-75) was over 2560 nM, the IC50 (SW1710) was over 2560 nM and the IC50 (SW1783) was over 2560 nM. It also gave an IC50 (SW684) of over 2560 nM, an IC50 (T47D) of over 2560 nM and an IC50 (769-P) of 585 nM. For the same compound, the IC50 (A101D) was over 2560 nM, the IC50 (A253 cell line) was over 2560 nM and the IC50 (A-375) was over 2560 nM. It also gave an IC50 (A388) of over 2560 nM, an IC50 (AU565) of over 2560 nM and an IC50 (C8166) of over 2560 nM. The IC50 (UACC-893) was over 2560 nM and the IC50 (UMC-11) was over 2560 nM.
